Measured values as given in publication PMC12406203 (Journal of Medicinal Chemistry, 2025).

How the values were obtained:
Assay in all cases: KINOMEscan
Format in all cases: binding
SNARK = molecular target: T1, SNARK (Homo sapiens, UniProt Q9H093)
T1 construct: purchased Eurofins DiscoverX, LLC; host or cells: E. coli BL21-derived host (T7 phage) or HEK-293
T1 sequence (Q9H093 1-628): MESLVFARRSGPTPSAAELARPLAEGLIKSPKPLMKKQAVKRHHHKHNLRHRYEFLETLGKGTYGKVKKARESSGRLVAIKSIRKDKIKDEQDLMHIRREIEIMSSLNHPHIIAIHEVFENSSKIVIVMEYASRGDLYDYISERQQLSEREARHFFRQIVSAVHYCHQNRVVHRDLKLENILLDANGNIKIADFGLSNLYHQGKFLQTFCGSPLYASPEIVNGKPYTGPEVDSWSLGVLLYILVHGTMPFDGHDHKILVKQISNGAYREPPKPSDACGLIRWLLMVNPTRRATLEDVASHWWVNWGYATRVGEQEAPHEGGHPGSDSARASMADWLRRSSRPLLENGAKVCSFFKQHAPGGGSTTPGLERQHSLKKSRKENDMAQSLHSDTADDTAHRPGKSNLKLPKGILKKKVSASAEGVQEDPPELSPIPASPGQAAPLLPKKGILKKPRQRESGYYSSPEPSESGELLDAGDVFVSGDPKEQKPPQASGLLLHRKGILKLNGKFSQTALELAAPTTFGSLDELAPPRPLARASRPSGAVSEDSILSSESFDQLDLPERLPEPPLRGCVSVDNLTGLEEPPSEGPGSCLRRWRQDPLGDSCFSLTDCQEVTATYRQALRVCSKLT

JNK1 = molecular target: T2, JNK1 (Homo sapiens, UniProt P45983)
T2 construct: purchased Eurofins DiscoverX, LLC; host or cells: E. coli (BL21-derived, T7 phage) or HEK-293

AKT1 = molecular target: T3, AKT1 (Homo sapiens, UniProt P31749)
T3 construct: purchased Eurofins DiscoverX, LLC; host or cells: E. coli BL21-derived (T7 phage) or HEK-293

p38β = molecular target: T4, p38β (Homo sapiens, UniProt Q15759)
T4 construct: purchased Eurofins DiscoverX, LLC; host or cells: E. coli (BL21-derived, T7 phage) or HEK-293

PAK2 = molecular target: T5, PAK2 (Homo sapiens, UniProt Q13177)
T5 construct: purchased Eurofins DiscoverX, LLC; host or cells: E. coli (BL21-derived, T7 phage) or HEK-293

FAK = molecular target: T6, FAK (Homo sapiens, UniProt Q05397)
T6 construct: purchased Eurofins DiscoverX, LLC; host or cells: E. coli (T7 phage) or HEK-293

CDK9 = molecular target: T7, CDK9 (Homo sapiens, UniProt P50750)
T7 construct: purchased Eurofins DiscoverX, LLC; host or cells: E. coli (T7 phage) or HEK-293

MARK3 = molecular target: T8, MARK3 (Homo sapiens, UniProt P27448)
T8 construct: purchased Eurofins DiscoverX, LLC; host or cells: E. coli (BL21-derived, T7 phage) or HEK-293

MAPKAPK5 = molecular target: T9, MAPKAPK5 (Homo sapiens, UniProt Q8IW41)
T9 construct: purchased Eurofins DiscoverX, LLC; host or cells: E. coli (BL21-derived, T7 phage) or HEK-293
T9 sequence (Q8IW41 1-473): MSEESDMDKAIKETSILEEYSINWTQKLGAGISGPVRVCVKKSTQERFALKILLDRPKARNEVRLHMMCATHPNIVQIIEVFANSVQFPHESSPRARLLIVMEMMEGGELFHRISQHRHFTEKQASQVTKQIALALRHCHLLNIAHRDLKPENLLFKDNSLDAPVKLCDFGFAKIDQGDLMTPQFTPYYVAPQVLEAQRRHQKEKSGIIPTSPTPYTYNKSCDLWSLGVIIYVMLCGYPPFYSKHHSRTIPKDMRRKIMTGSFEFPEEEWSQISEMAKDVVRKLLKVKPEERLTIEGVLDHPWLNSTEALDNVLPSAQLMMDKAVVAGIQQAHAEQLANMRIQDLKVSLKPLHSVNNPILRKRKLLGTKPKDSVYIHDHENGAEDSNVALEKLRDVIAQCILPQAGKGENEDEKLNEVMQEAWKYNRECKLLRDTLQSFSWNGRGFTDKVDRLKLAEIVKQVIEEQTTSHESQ

CSF1R = molecular target: T10, CSF1R (Homo sapiens, UniProt P07333)
T10 construct: purchased Eurofins DiscoverX, LLC; host or cells: E. coli (T7 phage) or HEK-293
T10 sequence (P07333 20-972): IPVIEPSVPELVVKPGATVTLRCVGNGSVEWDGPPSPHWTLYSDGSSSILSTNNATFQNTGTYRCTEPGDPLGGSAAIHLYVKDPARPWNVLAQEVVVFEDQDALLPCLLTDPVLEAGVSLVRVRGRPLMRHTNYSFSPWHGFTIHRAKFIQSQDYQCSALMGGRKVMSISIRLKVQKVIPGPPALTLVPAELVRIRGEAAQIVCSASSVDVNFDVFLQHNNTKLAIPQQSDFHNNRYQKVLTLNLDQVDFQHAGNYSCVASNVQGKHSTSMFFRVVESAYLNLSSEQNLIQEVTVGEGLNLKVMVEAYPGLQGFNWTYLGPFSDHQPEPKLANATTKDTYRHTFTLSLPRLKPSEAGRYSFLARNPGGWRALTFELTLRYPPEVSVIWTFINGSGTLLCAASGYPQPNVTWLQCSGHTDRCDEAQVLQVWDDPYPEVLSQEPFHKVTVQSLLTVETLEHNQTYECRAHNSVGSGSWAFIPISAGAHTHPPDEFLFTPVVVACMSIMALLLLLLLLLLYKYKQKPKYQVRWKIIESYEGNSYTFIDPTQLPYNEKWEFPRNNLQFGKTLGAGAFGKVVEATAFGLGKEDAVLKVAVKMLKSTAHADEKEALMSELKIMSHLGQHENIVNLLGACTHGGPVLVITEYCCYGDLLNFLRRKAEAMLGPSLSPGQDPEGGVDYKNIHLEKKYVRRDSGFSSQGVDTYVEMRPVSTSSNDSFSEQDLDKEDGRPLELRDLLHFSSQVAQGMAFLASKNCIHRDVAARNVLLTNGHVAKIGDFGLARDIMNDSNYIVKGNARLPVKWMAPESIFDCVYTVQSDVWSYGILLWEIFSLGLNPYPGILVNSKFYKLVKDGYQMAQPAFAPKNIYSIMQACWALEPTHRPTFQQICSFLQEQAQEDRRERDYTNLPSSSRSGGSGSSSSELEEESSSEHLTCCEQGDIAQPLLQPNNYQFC

T6 sequence (Q05397 whole entry): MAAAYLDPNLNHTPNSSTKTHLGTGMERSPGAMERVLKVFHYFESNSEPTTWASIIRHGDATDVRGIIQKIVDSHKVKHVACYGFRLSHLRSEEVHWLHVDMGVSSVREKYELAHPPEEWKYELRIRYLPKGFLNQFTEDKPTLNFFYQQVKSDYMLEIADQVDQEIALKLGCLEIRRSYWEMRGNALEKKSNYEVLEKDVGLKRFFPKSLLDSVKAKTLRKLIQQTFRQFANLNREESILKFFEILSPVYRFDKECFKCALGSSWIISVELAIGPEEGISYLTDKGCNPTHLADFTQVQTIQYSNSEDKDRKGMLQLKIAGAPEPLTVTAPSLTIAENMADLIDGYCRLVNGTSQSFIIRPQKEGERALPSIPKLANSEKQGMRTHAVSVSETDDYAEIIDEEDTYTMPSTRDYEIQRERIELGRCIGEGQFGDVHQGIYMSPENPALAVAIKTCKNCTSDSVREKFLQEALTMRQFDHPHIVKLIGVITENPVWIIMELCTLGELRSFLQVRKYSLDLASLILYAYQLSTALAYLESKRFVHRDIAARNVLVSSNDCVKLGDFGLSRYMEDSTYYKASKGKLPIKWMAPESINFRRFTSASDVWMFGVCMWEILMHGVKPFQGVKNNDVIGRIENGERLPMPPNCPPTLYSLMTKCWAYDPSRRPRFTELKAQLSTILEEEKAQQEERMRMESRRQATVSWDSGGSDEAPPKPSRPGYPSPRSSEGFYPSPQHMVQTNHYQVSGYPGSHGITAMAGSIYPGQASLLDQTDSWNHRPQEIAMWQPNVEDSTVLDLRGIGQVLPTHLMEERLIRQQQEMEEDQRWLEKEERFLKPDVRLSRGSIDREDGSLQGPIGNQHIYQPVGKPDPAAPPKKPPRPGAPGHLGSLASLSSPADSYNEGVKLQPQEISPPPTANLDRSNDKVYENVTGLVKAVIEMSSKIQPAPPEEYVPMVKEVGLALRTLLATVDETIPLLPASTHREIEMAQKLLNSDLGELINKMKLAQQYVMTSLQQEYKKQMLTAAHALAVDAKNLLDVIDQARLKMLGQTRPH
T7 sequence (P50750 whole entry): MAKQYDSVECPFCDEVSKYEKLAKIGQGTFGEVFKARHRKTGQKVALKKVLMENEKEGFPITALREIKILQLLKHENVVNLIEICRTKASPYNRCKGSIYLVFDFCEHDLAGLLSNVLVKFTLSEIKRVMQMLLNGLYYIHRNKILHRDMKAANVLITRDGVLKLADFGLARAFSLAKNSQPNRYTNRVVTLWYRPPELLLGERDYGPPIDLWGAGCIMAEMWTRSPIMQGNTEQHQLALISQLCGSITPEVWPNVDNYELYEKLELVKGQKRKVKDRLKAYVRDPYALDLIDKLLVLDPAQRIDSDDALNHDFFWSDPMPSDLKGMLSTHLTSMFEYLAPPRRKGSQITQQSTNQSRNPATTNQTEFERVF
T8 sequence (P27448 whole entry): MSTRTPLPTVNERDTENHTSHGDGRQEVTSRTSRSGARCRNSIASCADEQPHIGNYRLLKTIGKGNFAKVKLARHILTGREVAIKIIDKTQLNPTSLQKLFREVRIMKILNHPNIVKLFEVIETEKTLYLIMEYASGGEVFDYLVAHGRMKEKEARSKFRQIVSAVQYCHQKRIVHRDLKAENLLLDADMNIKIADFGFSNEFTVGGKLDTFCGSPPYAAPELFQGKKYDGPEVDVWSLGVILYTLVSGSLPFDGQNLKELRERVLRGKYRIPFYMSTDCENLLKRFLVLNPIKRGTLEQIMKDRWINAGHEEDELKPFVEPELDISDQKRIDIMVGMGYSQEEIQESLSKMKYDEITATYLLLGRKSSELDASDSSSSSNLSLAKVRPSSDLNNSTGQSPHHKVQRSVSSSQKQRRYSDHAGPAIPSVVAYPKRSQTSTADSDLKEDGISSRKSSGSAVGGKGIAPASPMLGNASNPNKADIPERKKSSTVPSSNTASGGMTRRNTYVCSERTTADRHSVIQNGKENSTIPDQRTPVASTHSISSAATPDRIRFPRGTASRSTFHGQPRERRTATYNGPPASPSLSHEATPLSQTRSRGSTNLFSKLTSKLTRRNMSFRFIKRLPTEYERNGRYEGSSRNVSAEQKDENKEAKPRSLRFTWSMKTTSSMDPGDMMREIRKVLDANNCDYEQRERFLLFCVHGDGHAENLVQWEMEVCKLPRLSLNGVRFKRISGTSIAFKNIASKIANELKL
T3 sequence (P31749 whole entry): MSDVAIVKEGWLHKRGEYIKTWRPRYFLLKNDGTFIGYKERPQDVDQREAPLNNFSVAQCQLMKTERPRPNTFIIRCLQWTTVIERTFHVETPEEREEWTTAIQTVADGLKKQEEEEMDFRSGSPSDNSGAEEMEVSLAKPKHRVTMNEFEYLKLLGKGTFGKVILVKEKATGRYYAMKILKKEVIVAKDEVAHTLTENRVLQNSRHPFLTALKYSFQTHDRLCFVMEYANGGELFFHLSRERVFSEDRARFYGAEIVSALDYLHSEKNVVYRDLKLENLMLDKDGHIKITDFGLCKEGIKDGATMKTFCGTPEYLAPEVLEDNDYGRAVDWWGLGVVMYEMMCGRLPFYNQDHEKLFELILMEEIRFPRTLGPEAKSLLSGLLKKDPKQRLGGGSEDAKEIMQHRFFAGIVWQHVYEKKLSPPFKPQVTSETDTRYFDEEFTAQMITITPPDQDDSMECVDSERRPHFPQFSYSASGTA
T4 sequence (Q15759 whole entry): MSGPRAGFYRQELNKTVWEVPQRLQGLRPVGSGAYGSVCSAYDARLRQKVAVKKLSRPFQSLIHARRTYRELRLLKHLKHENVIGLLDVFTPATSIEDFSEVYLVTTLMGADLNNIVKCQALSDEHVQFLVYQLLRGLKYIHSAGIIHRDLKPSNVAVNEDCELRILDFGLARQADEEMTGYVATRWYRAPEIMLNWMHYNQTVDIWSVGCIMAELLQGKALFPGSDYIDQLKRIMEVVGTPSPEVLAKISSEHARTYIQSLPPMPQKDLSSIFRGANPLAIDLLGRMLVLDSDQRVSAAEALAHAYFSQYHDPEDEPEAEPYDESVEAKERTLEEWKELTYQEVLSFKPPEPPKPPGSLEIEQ
T2 sequence (P45983 whole entry): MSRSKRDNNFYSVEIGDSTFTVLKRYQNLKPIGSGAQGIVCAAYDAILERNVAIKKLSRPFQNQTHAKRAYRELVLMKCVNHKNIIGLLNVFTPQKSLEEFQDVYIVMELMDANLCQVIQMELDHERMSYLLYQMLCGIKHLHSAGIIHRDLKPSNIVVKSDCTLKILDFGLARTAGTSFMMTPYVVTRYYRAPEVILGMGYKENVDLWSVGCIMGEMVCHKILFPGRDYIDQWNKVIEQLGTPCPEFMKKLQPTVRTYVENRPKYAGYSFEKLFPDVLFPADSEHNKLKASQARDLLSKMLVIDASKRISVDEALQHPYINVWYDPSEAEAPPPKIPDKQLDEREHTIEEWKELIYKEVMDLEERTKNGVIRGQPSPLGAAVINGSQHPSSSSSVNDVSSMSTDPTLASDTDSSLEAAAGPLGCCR
T5 sequence (Q13177 whole entry): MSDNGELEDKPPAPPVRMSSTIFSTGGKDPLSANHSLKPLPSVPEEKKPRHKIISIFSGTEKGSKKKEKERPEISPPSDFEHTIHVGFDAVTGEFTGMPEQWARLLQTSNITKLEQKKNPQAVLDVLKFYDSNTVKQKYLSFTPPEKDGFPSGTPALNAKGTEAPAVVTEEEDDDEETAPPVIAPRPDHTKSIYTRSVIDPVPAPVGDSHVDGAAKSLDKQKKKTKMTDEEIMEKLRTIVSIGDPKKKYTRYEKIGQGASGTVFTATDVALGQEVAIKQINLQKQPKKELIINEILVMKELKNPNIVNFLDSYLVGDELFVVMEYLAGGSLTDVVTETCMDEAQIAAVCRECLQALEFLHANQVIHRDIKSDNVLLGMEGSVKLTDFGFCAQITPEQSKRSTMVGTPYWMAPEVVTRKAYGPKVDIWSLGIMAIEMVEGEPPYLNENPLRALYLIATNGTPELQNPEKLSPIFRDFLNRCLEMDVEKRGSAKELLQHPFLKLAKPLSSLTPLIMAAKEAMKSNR

Compound | RA @ 1000nM (SNARK) | RA @ 10000nM (SNARK) | RA @ 1000nM (JNK1) | RA @ 10000nM (JNK1) | RA @ 1000nM (AKT1) | RA @ 10000nM (AKT1) | RA @ 1000nM (p38β) | RA @ 10000nM (p38β) | RA @ 1000nM (PAK2) | RA @ 10000nM (PAK2) | RA @ 1000nM (FAK) | RA @ 10000nM (FAK) | RA @ 1000nM (CDK9) | RA @ 10000nM (CDK9) | RA @ 1000nM (MARK3) | RA @ 10000nM (MARK3) | RA @ 1000nM (MAPKAPK5) | RA @ 10000nM (MAPKAPK5) | RA @ 1000nM (CSF1R) | RA @ 10000nM (CSF1R)
CC(C)Cn1ncc2cc(Cc3ccc(F)cc3F)c(C(=O)NCCN(C)C)cc21 [Compound 94, 5-(2,4-Difluorobenzyl)-N-(2-(dimethylamino)ethyl)-1-isobutyl-1H-indazole-6-carboxamide] | 100% | 93% | 77% | 41% | 100% | 75% | 72% | 15% | 100% | 97% | 96% | 89% | 100% | 100% | 100% | 100% | 100% | 100% | 100% | 86%
CN(C)CCNC(=O)c1cc2c(cnn2CC2CCCCC2)cc1Cc1ccc(F)cc1F [Compound 95, 1-(Cyclohexylmethyl)-5-(2,4-difluorobenzyl)-N-(2-(dimethylamino)ethyl)-1H-indazole-6-carboxamide] | 93% | 92% | 100% | 27% | 100% | 100% | 84% | 18% | 100% | 95% | 92% | 94% | 100% | 93% | 79% | 86% | 100% | 100% | 100% | 79%
